Data as given in patent US20260028336A1 (Arcus Biosciences, Inc., priority 2022, published 2026).

How the values were obtained:
Jurkat cells = experiment: IL-2 secretion assay in CD3/CD28-activated Jurkat cells (AlphaLISA); assay type: cell-based; details: Homo sapiens, CD3/CD28 T Cell Activator, 24 h, IL-2 AlphaLISA
Description: Certain compounds were also evaluated in an IL-2 secretion assay. On the day of the assay, a 16 point, 1:2 master serial dilution of each compound was prepared in Opti-MEM to span a final concentration range of 10 μM to 300 pM. Assays were set up in CORNING® tissue culture-treated 384-well microplates containing 60 nL of each dilution. […] 50,000 cells/well and added to the compound plates. After a short spin (1200 rpm for 1 min), the plates were incubated at 37° C. for 1 hour. The cells were activated by adding 15 μL of IMMUNOCULT™ Human CD3/CD28 T Cell Activator ([…] Technologies) diluted in Opti-MEM. […] The AiphaLISA signal was measured using an EnVision plate reader (PerkinElmer). EC50 values were determined by fitting the data to a standard 4-parameter logistic equation.

Cbl-b = target: T1, Cbl-b (Homo sapiens, UniProt Q13191); experiment: Cbl-b probe displacement HTRF binding assay; details: 0.4 nM biotinylated Cbl-b, 150 nM BODIPY probe
T1 construct: biotin (biotinylated)
Description: The affinity with which compounds of the present dislcosure bind to Cbl-b was assessed using probe displacement homologous time resolved fluorescence (HTRF) assays. […] The assays were performed in assay buffer consisting of 20 mM Hepes, 150 mM NaCl, 0.01% Triton X-100, 0.5 mM TCEP, 0.01% BSA. On the day of the assay, a 20 point, 1:2 master serial dilution of each compound was prepared in DMSO to span a final concentration range of […] to 0 nM. Two hundred nanoliters of diluted compound was added to each well of a 384-well plate. Fifteen microliters of biotinylated-Cbl-b resuspended in assay buffer were added to each well and the plate incubated for 60 minutes at room temperature prior to addition of 5 μL of BODIPY™ probe in assay buffer. […] After a further 15 minutes of incubation at room temperature, 5 μl of Streptavidin-Terbium cryptate reagent at 5-fold final concentration was added to each well of the 384-well plate. Binding of a probe to Cbl-b results in an increase of HTRF signal. […] Percentage maximum activity in each test well was calculated based on DMSO (maximum activity, 0% displacement) and no protein control wells (baseline activity, 100% displacement). Binding affinity was determined from a dose response curve fitted using a standard four parameter fit equation.

T1 sequence (Q13191 whole entry, species assumed): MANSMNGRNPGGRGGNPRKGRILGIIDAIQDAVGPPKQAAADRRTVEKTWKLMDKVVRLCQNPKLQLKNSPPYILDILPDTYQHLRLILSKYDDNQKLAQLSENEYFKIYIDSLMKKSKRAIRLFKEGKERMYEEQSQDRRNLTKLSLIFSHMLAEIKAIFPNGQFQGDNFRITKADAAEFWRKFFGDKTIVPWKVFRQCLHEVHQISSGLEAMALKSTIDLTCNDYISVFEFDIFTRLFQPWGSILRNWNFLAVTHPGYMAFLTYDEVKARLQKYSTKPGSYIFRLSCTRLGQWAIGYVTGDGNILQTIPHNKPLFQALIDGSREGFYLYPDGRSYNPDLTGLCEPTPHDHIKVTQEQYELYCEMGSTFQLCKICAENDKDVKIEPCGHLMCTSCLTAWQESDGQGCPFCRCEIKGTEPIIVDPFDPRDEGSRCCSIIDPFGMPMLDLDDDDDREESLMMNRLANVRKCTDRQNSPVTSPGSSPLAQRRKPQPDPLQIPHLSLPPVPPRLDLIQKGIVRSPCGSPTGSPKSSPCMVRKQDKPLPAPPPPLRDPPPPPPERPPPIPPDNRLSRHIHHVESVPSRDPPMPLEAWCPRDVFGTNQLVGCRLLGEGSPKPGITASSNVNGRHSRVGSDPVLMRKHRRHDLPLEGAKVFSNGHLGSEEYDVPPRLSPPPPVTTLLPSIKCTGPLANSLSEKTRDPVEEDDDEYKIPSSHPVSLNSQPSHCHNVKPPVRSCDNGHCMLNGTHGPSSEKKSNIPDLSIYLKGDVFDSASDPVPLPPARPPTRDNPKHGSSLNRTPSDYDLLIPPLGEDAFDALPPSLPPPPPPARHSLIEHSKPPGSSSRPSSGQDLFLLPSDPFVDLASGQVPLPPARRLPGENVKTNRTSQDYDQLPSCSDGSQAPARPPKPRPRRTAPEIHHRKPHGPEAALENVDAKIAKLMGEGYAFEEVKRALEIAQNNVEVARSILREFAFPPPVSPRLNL

Row | EC50 (Jurkat cells) | IC50 (Cbl-b) | SMILES
1 | 100 to 1000 nM | < 100 nM | Cn1cnnc1C1(c2cccc(-n3cc(C4CC4)c4cc(CNCC5(O)CCC5)[nH]c4c3=O)c2)CC(F)(F)C1 [Example 83, 4-cyclopropyl-6-{3-[3,3-difluoro-1-(4-methyl-4H-1,2,4-triazol-3-yl)cyclobutyl]phenyl}-2-({[(1-hydroxycyclobutyl)methyl]amino}methyl)-1H,6H,7H-pyrrolo[2,3-c]pyridin-7-one]
2 | 100 to 1000 nM | 100 to 1000 nM | C[C@H]1CCCN(Cc2cc3c(C4CC4)cn(-c4cccc(C5(c6nnco6)CC(F)(F)C5)c4)c(=O)c3[nH]2)C1 [Example 121, 4-cyclopropyl-6-[3-[3,3-difluoro-1-(1,3,4-oxadiazol-2-yl)cyclobutyl]phenyl]-2-[[(3S)-3-methylpiperidin-1-yl]methyl]-1H-pyrrolo[2,3-c]pyridin-7-one]
3 | > 5000 nM | < 100 nM | CC1CC(c2cccc(-n3cc(C4CC4)c4cc(CN5C[C@@H]6C[C@H]5CN6)[nH]c4c3=O)c2)(c2nncn2C)C1 (stereo partly drawn) [Example 59, 4-cyclopropyl-2-{[(1S,4S)-2,5-diazabicyclo[2.2.1]heptan-2-yl]methyl}-6-{3-[3-methyl-1-(4-methyl-4H-1,2,4-triazol-3-yl)cyclobutyl]phenyl}-1H,6H,7H-pyrrolo[2,3-c]pyridin-7-one]
4 | 100 to 1000 nM | < 100 nM | CC1CC(c2cccc(-n3cc(C4CC4)c4cc(CN5CC(F)(F)C5)[nH]c4c3=O)c2)(c2nncn2C)C1 (stereo not drawn) [Example 58, 4-cyclopropyl-2-[(3,3-difluoroazetidin-1-yl)methyl]-6-{3-[3-methyl-1-(4-methyl-4H-1,2,4-triazol-3-yl)cyclobutyl]phenyl}-1H,6H,7H-pyrrolo[2,3-c]pyridin-7-one]
5 | > 5000 nM | < 100 nM | Cn1nncc1-c1c[nH]c2c(=O)n(-c3cccc([C@]4(c5nncn5C)C[C@@H](C)C4)c3)cc(C3CC3)c12 [Example 133, 4-Cyclopropyl-3-(1-methyl-1H-1,2,3-triazol-5-yl)-6-{3-[(1R,3S)-3-methyl-1-(4-methyl-4H-1,2,4-triazol-3-yl)cyclobutyl]phenyl}-1H,6H,7H-pyrrolo[2,3-c]pyridin-7-one]
6 | 1000 to 5000 nM | – | C[C@H]1CCCN(Cc2cc3c(C4CC4)cn(-c4cccc([C@]5(c6nncn6C)C[C@H](O)C5)c4)c(=O)c3[nH]2)C1 [Example 99, trans-4-cyclopropyl-6-[3-[3-hydroxy-1-(4-methyl-1,2,4-triazol-3-yl)cyclobutyl]phenyl]-2-[[(3S)-3-methylpiperidin-1-yl]methyl]-1H-pyrrolo[2,3-c]pyridin-7-one]
7 | – | < 100 nM | CC(=O)c1c[nH]c2c(=O)n(-c3cccc([C@]4(c5nncn5C)C[C@H](C)C4)c3)cc(C3CC3)c12 (single isomer, unassigned) [Example 22, 3-Acetyl-4-cyclopropyl-6-{3-[(1s,3r)-3-methyl-1-(4-methyl-4H-1,2,4-triazol-3-yl)cyclobutyl]phenyl}-1H,6H,7H-pyrrolo[2,3-c]pyridin-7-one]
8 | – | < 100 nM | Cn1cnnc1C1(c2cccc(-n3cc(C4CC4)c4cc(CNC5CCC(F)(F)C5)[nH]c4c3=O)c2)CC(F)(F)C1 (stereo not drawn) [Example 80, 4-cyclopropyl-6-{3-[3,3-difluoro-1-(4-methyl-4H-1,2,4-triazol-3-yl)cyclobutyl]phenyl}-2-{[(3,3-difluorocyclopentyl)amino]methyl}-1H,6H,7H-pyrrolo[2,3-c]pyridin-7-one]
9 | – | < 100 nM | CC(c1ccnc(-n2cc(C3CC3)c3cc(CN4CCC[C@H](C)C4)[nH]c3c2=O)c1)c1nncn1C (stereo partly drawn) [Example 157, 2—{[(S)-3-methyl-1-piperidyl]methyl}-4-cyclopropyl-6-{4-[1-(4-methyl-4H-1,2,4-triazol-3-yl)ethyl]-2-pyridyl}-1,6-dihydro-1,6-diaza-7-indenone]
10 | – | < 100 nM | CC1CC(c2cccc(-n3cc(C4CC4)c4cc(CN5CCC[C@H](C(F)(F)F)C5)[nH]c4c3=O)c2)(c2nncn2C)C1 (stereo partly drawn) [Example 48, 4-cyclopropyl-6-{3-[3-methyl-1-(4-methyl-4H-1,2,4-triazol-3-yl)cyclobutyl]phenyl}-2-{[(3S′)-3-(trifluoromethyl)piperidin-1-yl]methyl}-1H,6H,7H-pyrrolo[2,3-c]pyridin-7-one]
11 | – | < 100 nM | C[C@H]1CCCN(Cc2cc3ncn(-c4cccc([C@]5(c6nncn6C(F)F)C[C@H](OC(F)F)C5)c4)c(=O)c3[nH]2)C1 [Example 153, 2—{[(S)-3-methyl-1-piperidyl]methyl}-6-(m-{(1r,3S)-3-difluoromethoxy-1-[4-(difluoromethyl)-4H-1,2,4-triazol-3-yl]cyclobutyl}phenyl)-1,6-dihydro-1,4,6-triaza-7-indenone]
12 | – | 100 to 1000 nM | Cn1cnnc1C1(c2cccc(-n3cc(C4CC4)c4cc[nH]c4c3=O)c2)CC2(CC2)C1 [Example 10, 4-cyclopropyl-6-[3-[5-(4-methyl-1,2,4-triazol-3-yl)spiro[2.3]hexan-5-yl]phenyl]-1H-pyrrolo[2,3-c]pyridin-7-one]
13 | – | 100 to 1000 nM | Cn1cnnc1[C@]1(c2cccc(-n3ccc4c(C#N)c[nH]c4c3=O)c2)C[C@@H](C)C1 (single isomer, unassigned) [Example 28, 7-Oxo-6-{3-[(1s,3r)-3-methyl-1-(4-methyl-4H-1,2,4-triazol-3-yl)cyclobutyl]phenyl}-1H,6H,7H-pyrrolo[2,3-c]pyridine-3-carbonitrile]
14 | – | 100 to 1000 nM | Cn1cnnc1[C@]1(c2cccc(-n3cc(C4CC4)c4c(S(C)(=O)=O)c[nH]c4c3=O)c2)C[C@H](C)C1 (single isomer, unassigned) [Example 25, 4-Cyclopropyl-3-methanesulfonyl-6-{3-[(1r,3s)-3-methyl-1-(4-methyl-4H-1,2,4-triazol-3-yl)cyclobutyl]phenyl}-1H,6H,7H-pyrrolo[2,3-c]pyridin-7-one]
15 | < 100 nM | – | C[C@H]1CCCN(Cc2cc3c(C4CC4)cn(-c4cccc([C@]5(c6nncn6C)C[C@@H](C)C5)c4)c(=O)c3[nH]2)C1 [Example 3, 4-cyclopropyl-6-[3-[3-methyl-1-(4-methyl-1,2,4-triazol-3-yl)cyclobutyl]phenyl]-2-[[(3S)-3-methylpiperidin-1-yl]methyl]-1H-pyrrolo[2,3-c]pyridin-7-one]
16 | – | < 100 nM | Cn1cncc1-c1c[nH]c2c(=O)n(-c3cccc([C@]4(c5nncn5C)C[C@H](C)C4)c3)cc(C3CC3)c12 (single isomer, unassigned) [Example 35]
17 | – | > 5000 nM | CC1CC(c2cccc(-n3cc(C4CC4)c4ccsc4c3=O)c2)(c2nncn2C)C1 (stereo not drawn) [Example 6, 4-cyclopropyl-6-{3-[3-methyl-1-(4-methyl-4H-1,2,4-triazol-3-yl)cyclobutyl]phenyl}-6H,7H-thieno[2,3-c]pyridin-7-one]
18 | – | 100 to 1000 nM | CC1CC(c2cccc(-n3cc(C4CC4)c4c(CN5CCC[C@H](C)C5)c[nH]c4c3=O)c2)(c2nncn2C)C1 (mixture of isomers) [Example 15, 4-Cyclopropyl-6-{3-[3-methyl-1-(4-methyl-4H-1,2,4-triazol-3-yl)cyclobutyl]phenyl}-3-{[(3S′)-3-methylpiperidin-1-yl]methyl}-1H,6H,7H-pyrrolo[2,3-c]pyridin-7-one]
19 | – | 100 to 1000 nM | Cn1cnnc1[C@]1(c2cccc(-n3ccc4c(C#N)c[nH]c4c3=O)c2)C[C@H](C)C1 (single isomer, unassigned) [Example 27, 7-Oxo-6-{3-[(1r,3s)-3-methyl-1-(4-methyl-4H-1,2,4-triazol-3-yl)cyclobutyl]phenyl}-1H,6H,7H-pyrrolo[2,3-c]pyridine-3-carbonitrile]
